In assay [1] the target is MCH receptor (Homo sapiens, UniProt Q99705). In words: MCH receptor [125J]-ligand binding filtration assay. The following applies: 10 μM test compound; percent inhibition of ligand binding. The method, then: The activity of the compounds of this invention at the MCH receptor site, if any was measured by the procedures as set forth below. • Test Compounds The compounds of this invention were stored in a 96-well microtiter plates (1 μL, 10 mM, 100% DMSO). Each of the test sample was diluted with 249 μL of 100% DMSO (dilution 1:250). […] Blank: Assay buffer containing 0.4% DMSO were transferred to the dilution microtiter plates for blanks • Assay Procedure: The filter plates with […] of 0.5% PEI-solution/well were incubated for 2 hours at room temperature. PEI was removed by vacuum filtration just before pipetting (Univac Polyfiltronic/Whatman). The solution of the compound as prepared above (50 μL), or MCH ([…]) or Puffer/DMSO (positive control) were added to 96-well round bottom microtiter plate. Then 50 μl of [^125J]-ligand solution was added followed by 100 μl of membrane suspension. The plates were closed with the lids, and incubated for 60 min. at 25° C. The samples were transferred to GF/B filter plate. The reaction mixture was removed by vacuum filtration, washed 4× with 300 μL ice-cold washing buffer and the washing solution was removed by vacuum filtration. The rubber layer at the bottom of the plate was then removed and the filters were dried over night at room temperature. 25 μL of scintillation cocktail was added and the plates were sealed and, plate frames were added and incubated for 1 hour at room temperature. The radioactivity was then measured, settings ^125J standard, 30 sec./well.

For assay [2], the target named is rhesus (Macaca Mulatta) H3 receptor (Macaca mulatta, UniProt Q865E1). The experiment in a line: Rhesus H3 radioligand binding assay ([3H]-Methylhistamine displacement, WGA SPA beads). Also noted: species or system rhesus monkey (Macaca Mulatta). The following applies: Table 2; procedure of Example 42. As to the method:
(Genbank #AY231164). Stably transfected cultures were amplified in tissue culture flasks by standard tissue culture methods and induced to express rhesus H3 by exposure to 500 ng/ml tetracycline (Cellgro) for 24 hours. After induction, cells were dissociated from flasks utilizing Cell Stripper (Cellgro). Cells were centrifuged (1K×g, 5 min) and pellet frozen in an ethanol-dry ice bath to disrupt cell membranes. Frozen cell pellet was re-suspended in 5 mM HEPES (pH 7.4, Invitrogen) at 10 ml/1000 cm2 of harvested cells. The cell suspension was drawn through an 18 gauge needle (2-3×) followed by a 23 gauge needle (2-3×) to further disrupt cell membranes. The cell suspension was centrifuged (40K×g, 30 min). Cell membrane pellet was re-suspended in 5 mM HEPES (pH 7.4, Invitrogen) at a final protein concentration of 10 mg/ml. Rhesus H3 membranes were stored under liquid nitrogen prior to use in [3H]-Methylhistamine and GTPγS radioligand binding assays.
Rhesus H3 radioligand binding assay was performed using rhesus H3 receptor membranes (prepared as described above), [3H]-Methylhistamine (Perkin Elmer) and WGA SPA beads (wheat germ agglutinin scintillation proximity assay) beads (Amersham). The assay was performed in 96-well Opti-Plates (Packard). Each reaction contained 50 μl rhesus H3 membranes (20-30 μg total protein), 50 μl WGA SPA beads (0.1 μg) and 50 μl of 83 Ci/mmol [^3H]-Methylhistamine (final concentration 2 nM) and 50 μl of tested compound. The compounds of this invention and/or vehicle were diluted with binding buffer from 10 mM DMSO stocks. Assay plates were sealed with TopSeal (Perkin Elmer) and mixed on shaker (25° C., 1 hour). Assay plates were read on TopCount scintillation counter (Packard). Results were analyzed by Hill transformation and Ki values were determined by Cheng-Prusoff equation.

Each structure is given as a SMILES string. Structures can show the parent of a compound that is named as a salt.

Chain of rhesus (Macaca Mulatta) H3 receptor (Q865E1 1-445): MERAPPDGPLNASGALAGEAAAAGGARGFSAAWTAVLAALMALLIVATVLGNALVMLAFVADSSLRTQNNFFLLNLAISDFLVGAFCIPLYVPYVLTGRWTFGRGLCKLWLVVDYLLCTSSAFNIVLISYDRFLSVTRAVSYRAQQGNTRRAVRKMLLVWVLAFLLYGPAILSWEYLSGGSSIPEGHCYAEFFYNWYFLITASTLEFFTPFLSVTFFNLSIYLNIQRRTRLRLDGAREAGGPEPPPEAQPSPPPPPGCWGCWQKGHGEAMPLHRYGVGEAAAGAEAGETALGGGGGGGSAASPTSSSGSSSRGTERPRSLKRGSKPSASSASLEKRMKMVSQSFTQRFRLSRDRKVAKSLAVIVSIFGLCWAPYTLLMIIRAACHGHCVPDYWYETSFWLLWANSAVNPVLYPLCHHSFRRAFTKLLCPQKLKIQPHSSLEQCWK
Chain of MCH receptor (Q99705 whole entry): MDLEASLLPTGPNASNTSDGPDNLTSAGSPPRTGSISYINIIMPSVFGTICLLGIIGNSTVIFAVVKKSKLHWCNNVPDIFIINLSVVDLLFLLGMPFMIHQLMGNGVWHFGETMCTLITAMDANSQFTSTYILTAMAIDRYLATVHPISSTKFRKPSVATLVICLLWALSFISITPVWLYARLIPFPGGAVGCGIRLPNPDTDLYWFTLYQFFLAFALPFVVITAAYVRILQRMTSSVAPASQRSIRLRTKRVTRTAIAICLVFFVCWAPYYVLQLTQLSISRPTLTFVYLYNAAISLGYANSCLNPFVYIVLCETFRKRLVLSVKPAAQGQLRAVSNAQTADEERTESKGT

In the case of `Cc1cc(C(=O)Nc2ccc(N3CC[C@H](N4CCC[C@@H]4C)C3)c(C)c2)n[nH]1` (stereo in doubt) [Example 22, 5-Methyl-1H-pyrazole-3-carboxylic acid [3-methyl-4-(2-methyl-[1,3′]bipyrrolidinyl-1′-yl)-phenyl]-amide trifluoroacetate], the inhibition (as a rule, the relative decrease from the control value, in per cent) at 10 µM in assay [1] was determined as 5.6%. Further, the inhibitory constant (Ki) (usually a dissociation constant, usually derived from enzyme kinetics or from competition with a known ligand) in assay [2] is 17.3 nM.

For the compound `Cc1cc(N2CC[C@H](N3CCC[C@@H]3C)C2)ccc1NC(=O)c1c(C)noc1C` [Example 1, 3,5-Dimethyl-isoxazole-4-carboxylic acid [2-methyl-4-(2(2S)-methyl-[1,3′(3′S)]bipyrrolidinyl-1′-yl)-phenyl]-amide], the inhibition at 10 µM in assay [1] was 0.7%. The same compound displayed a Ki in assay [2] of 0.4 nM.

For the compound `Cc1cc(N2CC[C@H](N3CCC[C@@H]3C)C2)ccc1NC(=O)C1CCCCC1` [Example 2, Cyclohexanecarboxylic acid [2-methyl-4-(2S-methyl-[1,3′S]bipyrrolidinyl-1′-yl)-phenyl]-amide trifluoro-acetate], the inhibition at 10 µM in assay [1] was -2.1%. The compound also yielded a Ki in assay [2] of 0.4 nM.

`Cc1cc(N2CC[C@H](N3CCC[C@@H]3C)C2)ccc1NC(=O)C1CC2CCC1C2` (stereo partly drawn) [Example 3, Bicyclo[2.2.1]heptane-2-carboxylic acid [2-methyl-4-(2S-methyl-[1,3′S]bipyrrolidinyl-1′-yl)-phenyl]-amide trifluoro acetate]: the inhibition at 10 µM in assay [1] is -0.8%. Moreover, the affinity in assay [2] corresponds to a Ki of 0.6 nM.

In the case of `Cc1cc(N2CC[C@H](N3CCC[C@@H]3C)C2)ccc1NC(=O)C1CCOCC1` [Example 4, Tetrahydro-pyran-4-carboxylic acid [2-methyl-4-(2(2S)-methyl-[1,3′(3′S)]bipyrrolidinyl-1′-yl)-phenyl]-amide], in assay [1], the inhibition at 10 µM was -1.6%. The compound also came in with a Ki in assay [2] of 1 nM.

Turning to `Cc1cc(C(=O)Nc2ccc(N3CC[C@H](N4CCC[C@@H]4C)C3)cc2C)on1` [Example 5, 3-Methyl-isoxazole-5-carboxylic acid [2-methyl-4-(2S-methyl-[1,3′ S]bipyrrolidinyl-1′-yl)-phenyl]-amide trifluoro-acetate], the inhibition at 10 µM in assay [1] stood at 3.1%. In assay [2], this compound registered a Ki of 1.1 nM.

Regarding `Cc1cc(NC(=O)c2c(C)noc2C)ccc1N1CCC(N2CCCC2C)C1` (centres unmarked) [Example 7, 3,5-Dimethyl-isoxazole-4-carboxylic acid [3-methyl-4-(2-methyl-[1,3′]bipyrrolidinyl-1′-yl)-phenyl]-amide trifluoro-acetate], the inhibition at 10 µM in assay [1] worked out at 5%. This compound registered an inhibition constant (Ki) in assay [2] of 3.2 nM.

Regarding `Cc1cc(N2CCC(N3CCCC3C)C2)ccc1NC(=O)CC1CCCC1` (centres unmarked) [Example 8, 2-Cyclopentyl-N-[2-methyl-4-(2-methyl-[1,3′]bipyrrolidinyl-1′-yl)-phenyl]-acetamide trifluoro-acetate], the inhibition at 10 µM in assay [1] was 1.4%. Besides, affinity in assay [2] was put at a Ki of 8.4 nM.

With `CC1CCCN1C1CCN(c2ccc(NC(=O)C3CCOCC3)cc2)C1` (centres unmarked) [Example 9, Tetrahydro-pyran-4-carboxylic acid [4-(2-methyl-[1,3′]bipyrrolidinyl-1′-yl)-phenyl]-amide trifluoro-acetate], in assay [1], the inhibition at 10 µM is -2.8%. This compound also registered a Ki in assay [2] of 8.7 nM.

On to `Cc1cc(N2CCC(N3CCCC3C)C2)ccc1NC(=O)C1CC1` (centres unmarked) [Example 10, Cyclopropane carboxylic acid [2-methyl-4-(2-methyl-[1,3′]bipyrrolidinyl-1′-yl)-phenyl]-amide trifluoro-acetate], for which, in assay [1], the inhibition at 10 µM was 4%. Moreover, the Ki in assay [2] was 9.6 nM.

In the case of `Cc1cc(NC(=O)C2CCOCC2)ccc1N1CCC(N2CCCC2C)C1` (centres unmarked) [Example 11, Tetrahydro-pyran-4-carboxylic acid [3-methyl-4-(2-methyl[1,3′]bipyrrolidinyl-1′-yl)-phenyl]-amide trifluoro-acetate], the inhibition at 10 µM in assay [1] came to 2.7%. Also, the Ki in assay [2] is 17 nM.

Take `Cc1cc(N2CCC(N3CCCC3C)C2)ccc1NC(=O)C1C[C@@H]2CC[C@H]1C2` (stereo partly drawn) [Example 12, (1S,4R)-Bicyclo[2.2.1]heptane-2-carboxylic acid [2-methyl-4-(2-methyl-[1,3′]bipyrrolidinyl-1′-yl)-phenyl]-amide trifluoro-acetate]: the inhibition at 10 µM in assay [1] was -2.8%. In assay [2], this compound displayed a Ki of 19.9 nM.

Regarding `CC1CCCN1C1CCN(c2ccc(NC(=O)c3cn[nH]c3)cc2)C1` (centres unmarked) [Example 13, 1H-Pyrazole-4-carboxylic acid [4-(2-methyl-[1,3′]bipyrrolidinyl-1′-yl)-phenyl]-amide trifluoro-acetate], the inhibition at 10 µM in assay [1] amounted to 4.8%. Besides, the Ki in assay [2] came out at 22.1 nM.

Turning to `Cc1cc(C(=O)Nc2ccc(N3CC[C@H](N4CCC[C@@H]4C)C3)cc2C)n[nH]1` [Example 14, 5-Methyl-1H-pyrazole-3-carboxylic acid [2-methyl-4-(2(2S)-methyl-[1,3′(3′S)]bipyrrolidinyl-1′-yl)-phenyl]-amide], the inhibition at 10 µM in assay [1] amounted to 28.3%. The compound further gave a Ki in assay [2] of 4.7 nM.

As for `Cc1cc(N2CC[C@H](N3CCC[C@@H]3C)C2)ccc1NC(=O)c1cc(C)n(C)n1` [Example 15, 1,5-Dimethyl-1H-pyrazole-3-carboxylic acid [2-methyl-4-(2(2S)-methyl-[1,3′(3′S)]bipyrrolidinyl-1′-yl)-phenyl]-amide hydrochloride], the inhibition at 10 µM in assay [1] was found to be 10.3%. The Ki in assay [2] worked out at 10.8 nM.

Turning to `Cc1cc(N2CC[C@H](N3CCC[C@@H]3C)C2)ccc1NC(=O)C1C(C)(C)C1(C)C` [Example 16, 2,2,3,3-Tetramethyl-cyclopropanecarboxylic acid [2-methyl-4-(2(S)-methyl-[1,3′(S)]bipyrrolidinyl-1′-yl)-phenyl]-amide trifluoroacetate], the inhibition at 10 µM in assay [1] is 5.8%. The compound also registered a Ki in assay [2] of 0.8 nM.

On to `Cc1cc(N2CCC(N3CCCC3C)C2)ccc1NC(=O)C1C(C)(C)C1(C)C` (centres unmarked) [Example 17, 2,2,3,3-Tetramethyl-cyclopropanecarboxylic acid [2-methyl-4-(2-methyl-[1,3′]bipyrrolidinyl-1′-yl)-phenyl]-amide trifluoroacetate], for which the inhibition at 10 µM in assay [1] is 11.5%. Further, the Ki in assay [2] is 37.3 nM.

Consider `Cc1cc(N2CCC(N3CCCC3C)C2)ccc1NC(=O)c1c(C)noc1C` (centres unmarked) [Example 18, 3,5-Dimethyl-isoxazole-4-carboxylic acid [2-methyl-4-(2-methyl-[1,3′]bipyrrolidinyl-1′-yl)-phenyl]-amide trifluoroacetate], for which the inhibition at 10 µM in assay [1] was -2%. For the same compound, in assay [2], the Ki came out at 2.6 nM.

For the compound `Cc1cc(N2CC[C@H](N3CCC[C@@H]3C)C2)ccc1NC(=O)c1ccco1` [Example 19, Furan-2-carboxylic acid [2-methyl-4-(2(S)-methyl-[1,3′(S)]bipyrrolidinyl-1′-yl)-phenyl]-amide trifluoroacetate], the inhibition at 10 µM in assay [1] turned out to be 6%. Besides, the Ki in assay [2] turned out to be 3.9 nM.

Consider `Cc1cc(C(=O)Nc2ccc(N3CCC(N4CCCC4C)C3)cc2C)n[nH]1` (centres unmarked) [Example 20, 5-Methyl-1H-pyrazole-3-carboxylic acid [2-methyl-4-(2-methyl-[1,3′]bipyrrolidinyl-1′-yl)-phenyl]-amide trifluoroacetate], for which the inhibition at 10 µM in assay [1] was 24.3%. In assay [2], this compound gave a Ki of 30.9 nM.

`Cc1cc(N2CC[C@H](N3CCC[C@@H]3C)C2)ccc1NC(=O)CC1CCCC1` [Example 21, 2-Cyclopentyl-N-[2-methyl-4-(2(S)-methyl-[1,3′(S)]bipyrrolidinyl-1′-yl)-phenyl]-acetamide trifluoroacetate]: the inhibition at 10 µM in assay [1] was determined as 1.9%. In assay [2], this compound showed a Ki of 0.9 nM.

`Cc1cc(NC(=O)C2C[C@@H]3CC[C@H]2C3)ccc1N1CCC(N2CCCC2C)C1` (stereo partly drawn) [Example 23, (1S,4R)-Bicyclo[2.2.1]heptane-2-carboxylic acid [3-methyl-4-(2-methyl-[1,3′]bipyrrolidinyl-1′-yl)-phenyl]-amide trifluoroacetate]: the inhibition at 10 µM in assay [1] was found to be 11.2%. The compound also yielded an inhibitory constant (Ki) in assay [2] of 130 nM.
